{"source": "paper PMC4104029", "about": "“Mechanism of Action of Compound-13: An α1-Selective Small Molecule Activator of AMPK” (Chemistry & Biology, 2014)", "assay_type_in_all_cases": "cell-based", "key": {"[1]": {"target": "T1, AMPKα2 complexes in primary hepatocytes (Mus musculus, UniProt O54950+Q8BRK8)", "T1 construct": "AMPKα1 or AMPKα2 complexes were immunoprecipitated from hepatocyte extracts; endogenous in cells; host or cells: primary mouse hepatocytes", "T1 sequence (Q8BRK8 whole entry, canonical isoform)": "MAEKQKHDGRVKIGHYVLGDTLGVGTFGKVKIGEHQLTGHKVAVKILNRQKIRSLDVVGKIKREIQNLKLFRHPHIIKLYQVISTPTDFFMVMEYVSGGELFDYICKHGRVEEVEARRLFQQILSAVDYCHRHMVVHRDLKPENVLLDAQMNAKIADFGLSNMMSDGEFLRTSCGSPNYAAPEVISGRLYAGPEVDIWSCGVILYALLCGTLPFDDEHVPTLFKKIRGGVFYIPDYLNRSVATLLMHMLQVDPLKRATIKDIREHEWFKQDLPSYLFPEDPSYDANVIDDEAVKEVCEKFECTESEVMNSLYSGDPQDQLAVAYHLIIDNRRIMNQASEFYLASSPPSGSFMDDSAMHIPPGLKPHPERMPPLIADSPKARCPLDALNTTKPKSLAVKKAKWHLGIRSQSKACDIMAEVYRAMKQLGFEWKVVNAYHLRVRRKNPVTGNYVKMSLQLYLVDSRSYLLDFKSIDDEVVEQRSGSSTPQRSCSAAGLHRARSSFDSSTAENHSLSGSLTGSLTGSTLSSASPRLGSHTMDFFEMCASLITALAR", "T1 sequence (Q9R078 2-270 partner limits assumed)": "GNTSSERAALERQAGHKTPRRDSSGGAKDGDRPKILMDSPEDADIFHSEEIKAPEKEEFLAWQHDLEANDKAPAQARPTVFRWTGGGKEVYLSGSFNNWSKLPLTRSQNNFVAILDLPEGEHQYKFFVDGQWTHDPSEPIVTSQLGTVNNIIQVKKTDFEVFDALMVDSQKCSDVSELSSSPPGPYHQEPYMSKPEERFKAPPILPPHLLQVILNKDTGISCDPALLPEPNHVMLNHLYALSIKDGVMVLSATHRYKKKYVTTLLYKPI", "T1 sequence (O54950 whole entry, canonical isoform)": "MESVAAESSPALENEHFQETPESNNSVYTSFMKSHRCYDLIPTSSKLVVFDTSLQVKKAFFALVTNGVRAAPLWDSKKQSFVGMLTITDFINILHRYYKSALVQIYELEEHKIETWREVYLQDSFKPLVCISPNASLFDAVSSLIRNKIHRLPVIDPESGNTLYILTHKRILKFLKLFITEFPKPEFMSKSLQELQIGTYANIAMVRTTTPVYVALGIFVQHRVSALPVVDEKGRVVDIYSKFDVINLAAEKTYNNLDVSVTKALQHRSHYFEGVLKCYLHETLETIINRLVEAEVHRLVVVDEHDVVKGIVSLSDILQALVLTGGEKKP", "assay": "Isoform-specific immunoprecipitate kinase assay from hepatocytes", "details": "1 hr; washed immunoprecipitates", "description": "(§1) Figure 4 The C2 Prodrug, C13, Potently Activates AMPK in Mouse Primary Hepatocytes (A) Isolated mouse hepatocytes were incubated with vehicle or the indicated concentrations of C13 for 1 hr. AICAR (0.5 mM) was included as a positive control. Cell lysates were analyzed using western blotting with the indicated antibodies. (B) AMPKα1 or AMPKα2 complexes were immunoprecipitated from hepatocyte extracts prepared as described in (A) and assayed for kinase activity using 0.2 mM AMARA and 0.1 mM ATP. Results are expressed as the mean Pi incorporated in picomoles per minute-milligram ± SD. […] Lysates were analyzed using western blotting with the indicated antibodies. (D) Mouse hepatocytes were treated with the indicated compounds for 1 hr, and adenine nucleotide ratios were determined using capillary electrophoresis of perchloric acid extracts. […] Lysates were analyzed using western blotting with the indicated antibodies. […] Lysates were analyzed using western blotting with the indicated antibodies. […]\n(§2) AMPK phosphotransferase activity was assayed in reactions (50 μl) containing 50 mM HEPES, pH 7.4, 10 mM MgCl2, 0.1 mM EGTA, 1 mM DTT, 0.01% BRIJ-35, 100 μM [γ-^32P]ATP (∼250 CPM⋅pmol^−1) and 200 μM AMARA (AMARAASAAALARRR). […] Washed filters were dried and [^32P] incorporation determined by Cherenkov counting. […]"}, "[2]": {"target": "T2, AMPKα1 complexes in primary hepatocytes (Mus musculus, UniProt O54950+Q5EG47)", "T2 construct": "AMPKα1 or AMPKα2 complexes were immunoprecipitated from hepatocyte extracts; endogenous in cells; host or cells: primary mouse hepatocytes", "T2 sequence (Q5EG47 whole entry, canonical isoform)": "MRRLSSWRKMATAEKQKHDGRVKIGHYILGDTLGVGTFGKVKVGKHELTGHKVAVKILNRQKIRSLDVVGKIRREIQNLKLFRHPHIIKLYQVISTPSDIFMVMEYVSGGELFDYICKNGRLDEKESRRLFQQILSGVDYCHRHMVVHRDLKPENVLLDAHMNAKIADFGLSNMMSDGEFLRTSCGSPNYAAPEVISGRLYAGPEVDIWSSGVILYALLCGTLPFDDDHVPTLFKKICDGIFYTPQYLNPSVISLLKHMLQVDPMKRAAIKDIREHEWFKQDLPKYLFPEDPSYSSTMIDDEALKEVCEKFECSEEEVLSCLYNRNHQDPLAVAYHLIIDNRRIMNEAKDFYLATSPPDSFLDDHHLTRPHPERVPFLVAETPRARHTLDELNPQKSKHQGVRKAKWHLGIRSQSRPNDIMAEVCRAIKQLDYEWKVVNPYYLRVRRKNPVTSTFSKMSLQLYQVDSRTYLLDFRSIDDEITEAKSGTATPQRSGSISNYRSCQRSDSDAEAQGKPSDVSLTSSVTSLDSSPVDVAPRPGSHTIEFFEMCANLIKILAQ", "T2 sequence (Q9R078 2-270 partner limits assumed)": "as the sequence (Q9R078 2-270 partner limits assumed) above", "T2 sequence (O54950 whole entry, canonical isoform)": "as the sequence (O54950 whole entry, canonical isoform) above", "assay": "Isoform-specific immunoprecipitate kinase assay from hepatocytes", "details": "1 hr; washed immunoprecipitates", "description": "as §1, §2"}, "[3]": {"tested_on": "AMPK signaling in mouse primary hepatocytes", "assay": "AMPK signaling in primary hepatocytes, western blotting", "description": "Figure 4 The C2 Prodrug, C13, Potently Activates AMPK in Mouse Primary Hepatocytes (A) Isolated mouse hepatocytes were incubated with vehicle or the indicated concentrations of C13 for 1 hr. AICAR (0.5 mM) was included as a positive control. Cell lysates were analyzed using western blotting with the indicated antibodies. (B) AMPKα1 or AMPKα2 complexes were immunoprecipitated from hepatocyte extracts prepared as described in (A) and assayed for kinase activity using 0.2 mM AMARA and 0.1 mM ATP. Results are expressed as the mean Pi incorporated in picomoles per minute-milligram ± SD. (C) Hepatocytes were stimulated with 30 μM C13 for the indicated times prior to harvesting, with AICAR (0.5 mM, 1 hr) as positive control. Lysates were analyzed using western blotting with the indicated antibodies. (D) Mouse hepatocytes were treated with the indicated compounds for 1 hr, and adenine nucleotide ratios were determined using capillary electrophoresis of perchloric acid extracts. (E) Mouse hepatocytes were preincubated with 30 μM STO-609 for 30 min prior to stimulation with 30 μM C13 for 1 hr or with 1 μM ionomycin for 30 min. Lysates were analyzed using western blotting with the indicated antibodies. (F) Wild-type (LKB1^+/+) or LKB1-null (LKB1^−/−) mouse embryonic fibroblasts were incubated with the indicated concentrations of C13 for 1 hr. AICAR (2 mM) was included as a positive control. Lysates were analyzed using western blotting with the indicated antibodies. Results are representative of three independent experiments. […]\nIsolation of primary hepatocytes. Hepatocytes were isolated from fasted mice by collagenase digestion (Berry and Friend, 1969). Cells were seeded in M199 containing 100 U/ml penicillin G, 100 µg/ml streptomycin, 0.1 % (w/v) BSA, 10 % (v/v) FBS, 10 nM insulin, 200 nM triiodothyronine and 100 nM dexamethasone. Post attachment (3-4 h), cells were cultured overnight in M199 supplemented with antibiotics and 100 nM dexamethasone and used for experiments the following morning.\nWestern blotting. Cells were stimulated as indicated, rinsed with ice-cold PBS and lysed with 50 mM tris pH 7.5, 1 mM EDTA, 1 mM EGTA, 0.27 M sucrose, 1 % (w/v) Triton X-100, 20 mM glycerol-2-phosphate, 50 mM NaF, 5 mM Na4P2O7, 1 mM Na3VO4, 1 mM DTT, 0.5 mM PMSF, 1 mM benzamidine and 1 µM microcystin-LR. Lysates were clarified at 3000 g for 5 min at 4 °C and normalised using Bradford reagent and BSA as standard. Lysates (20 µg) were denatured in Laemlli buffer, separated on 7.5 % tris-glycine gels and transferred to PVDF in Towbin buffer. Membranes were blocked in 5 % (w/v) milk for 1 h at RT and incubated overnight in the indicated primary antibodies at 4 °C. Membranes were developed using HRP-conjugated antibodies and ECL reagent.\nNucleotide measurements. Cultured hepatocytes were incubated with the indicated compounds and washed with ice-cold 0.9 % (w/v) saline before extraction in 5 % perchloric acid. Precipitated material was removed by centrifugation (13,000 RPM, 3 min) and supernatant neutralised with 1:1 trioctylamine:Freon-113 (Khym, 1975). Nucleotides were separated and quantified by capillary electrophoresis using a Beckman P/ACE instrument as previously described (Hawley, et al., 2010)."}}, "data": [{"smiles": "CC(C)C(=O)OCOP(=O)(OCOC(=O)C(C)C)c1ccc(C2=NOC(=O)C2)o1", "note": "[Compound C13]", "values": [{"measurement": "concentration above which activation was evident", "setting": "[1]", "result": "above 30 μM"}, {"measurement": "concentration at which complexes were stimulated", "setting": "[2]", "result": 3, "unit": "µM"}, {"measurement": "time course of Thr172 phosphorylation", "setting": "[3]; 30 μM", "result": "continually increased up to 2 hr"}, {"measurement": "time to maximal phosphorylation of downstream targets (ACC, Raptor, and ULK1)", "setting": "[3]; 30 μM", "result": "45 to 60", "unit": "min"}, {"measurement": "insulin-stimulated mTORC1 activation (phosphorylation of p70S6K and 4EBP1)", "setting": "[3]; 30 µM, 10 mU/ml insulin, 60 min", "result": "suppressed"}, {"measurement": "concentration above which Raptor and ULK1 were significantly phosphorylated", "setting": "[3]; 1 hr", "result": "1 to 3", "unit": "µM"}, {"measurement": "concentration above which phosphorylation of ACC was evident", "setting": "[3]; 1 hr", "result": "0.03 to 0.1", "unit": "µM"}, {"measurement": "concentration at which ACC phosphorylation appeared saturated", "setting": "[3]; 1 hr", "result": "1 to 3", "unit": "µM"}, {"measurement": "concentration at which Thr389 p70S6K1 phosphorylation was suppressed", "setting": "[3]; 1 hr", "result": "above 1 μM"}, {"measurement": "lowest concentration with elevation of Thr172 phosphorylation", "setting": "[3]; 1 hr", "result": 10, "unit": "µM"}]}]}
